Measurements: EPA's ToxValDB 9.5 (doi:10.2903/j.efsa.2011.2334)
Converted amounts (≈) assume the structure as drawn.

Columns and labels:
Aleochara bilineata = details: chronic/long-term; duration: 28 days; reproduction
Anas platyrhynchos = details: short-term; oral; feed; mortality
Canidae = details: oral, gavage, Dog Other
Colinus virginianus = details: acute; oral; mortality
Lepomis macrochirus = details: acute; duration: 96 hours; mortality
Oncorhynchus mykiss = details: acute; duration: 96 hours; mortality

With `CNC(=S)[S-].[Na+]` [Metam-sodium] the LEL (Aleochara bilineata) was 608000 g/ha, the LC50 (Anas platyrhynchos) was over 324 mg/kg-day and the NOAEL (Canidae; chronic, duration: 1 years, M/F, hematological) was 0.1 mg/kg-day. The LD50 (Colinus virginianus) was 211 mg/kg-day, the LC50 (Lepomis macrochirus) was over 0.175 µg/mL and the NOAEL (Rattus norvegicus; developmental, F, development) was 10 mg/kg-day.
In the case of `CN=C=S` [Methyl isothiocyanate], the LC50 (Anas platyrhynchos) was over 183 mg/kg-day, the NOAEL (Canidae; subchronic, duration: 90 days, body weight) was 0.4 mg/kg-day and the LD50 (Colinus virginianus) was 119 mg/kg-day. For the same compound, the LC50 (Oncorhynchus mykiss) was 0.0531 µg/mL (≈ 0.726 µM), the LD50 (Rattus norvegicus; acute, mortality) was 147 mg/kg-day and the NOAEL (Rattus norvegicus; chronic, duration: 2 years, oral, drinking water, hematological) was 0.44 mg/kg-day. It also gave an NOAEL (Rattus norvegicus; repeat dose other, oral, gavage, body weight) of 3 mg/kg-day.
